According to patent publication US7582786B2, “Synthetic catalytic free radical scavengers useful as antioxidants for prevention and therapy of disease” (Eukarion Inc., priority 1996, dated 2009):
Marks after values point to notes of the source that are not given here.

How the values were obtained:
[1] = SOD activity, xanthine/xanthine oxidase with cytochrome C as acceptor (Example 2); assay type: biochemical; conditions: relative to C7 (C7 = 100)
Experimental: Superoxide dismutase (SOD) activity was assayed by following the inhibition of the reduction of an electron acceptor molecule in the presence of the free-radical generating system xanthine/xanthine oxidase (McCord et al. (1973) Superoxide and Superoxide Dismutase in “Oxidases and Related Redox Systems, vol. I, King et al. eds., University Park press, Baltimore, pp. 51-76). The assay mixture consisted of 50 mM sodium phosphate, pH 7.8, 120 μM xanthine, 0.2 units/ml xanthine oxidase, with acceptor molecule and salen manganese compound, as indicated. Assays were conducted at 27±0.2° C. using a water-jacketed cell holder in a Beckman DU7400 spectrophotometer. In most cases, oxidized cytochrome c, at 0.13 mg/ml, was employed as acceptor and its reduction was monitored spectrophotometrically at 550 nm. In some experiments, nitroblue tetrazolium (NBT), at 80 μM, was substituted for cytochrome c as the acceptor. NBT reduction was also monitored at 550 nm. An estimated extinction coefficient for NBT reduction, 20,800 M^−1cm^−1, determined empirically by exhaustive reduction of NBT in the reaction mixture described above, was employed where indicated. […] Conversion of xanthine to urate was calculated using ε290's of […] for urate and 4050 M^−1cm^−1 for xanthine. […] For each compound, at least four different concentrations were tested in duplicate.

[2] = Catalase activity, conversion of H2O2 to oxygen, polarographic oxygen electrode (Example 2); assay type: biochemical; conditions: relative to C7 (C7 = 100)
Experimental: Catalase activity was assayed by monitoring the conversion of H2O2 to oxygen using a Clark-type polarographic oxygen electrode. The apparatus consisted of a Mini Clark Style electrode, a 600 μl Oxygen Uptake Chamber, and a Chemical Microsensor system, all obtained from Diamond General Corporation (Ann Arbor, Mich.). The electrode was calibrated by immersion in nitrogen- or air-equilibrated buffers using a Dual Chamber Calibration Cell (Diamond General,. Corp.). Catalase reaction mixtures consisted of 50 mM sodium phosphate, pH 8.1, 0.9% sodium chloride, and salen manganese complex and H2O2 at the indicated concentrations. The temperature of the water-jacketed reaction chamber, as well as the calibration buffers, was maintained at 25±0.1° C. Data were collected at 1 sec intervals and stored-on a MacIntosh II computer using data acquisition hardware and software by Strawberry Tree, Inc. (Sunnyvale, Calif.). Dissolved oxygen concentrations were calculated as described previously (Del Rio et al. (1977) Anal. Biochem. 80: 409) based on a value of 2.5×10^−4 M oxygen for air-saturated buffer at 25° C. Linearity of the dissolved oxygen measurements within the experimental range was continued by determining the amount of oxygen generated from known quantities of H2O2 during exhaustive treatment with bovine liver catalase. Stock solutions of H2O2 were prepared by diluting a commercial 30% H2O2 solution in water and the H2O2 concentrations in these stocks were determined by absorbance at 240 nm, using a molar extinction coefficient of 44 (Stadtman, E R. et al. (1990) Proc. Natl. Acad. Sci. USA 87: 384). […] In the absence of salen manganese complex, H2O2 alone typically produced an early, relatively slow increase in signal. The slope of this increased signal was not proportional to H2O2 concentration (for example in one experiment, 1 and 10 Mm H2O2 yielded apparent rates of 12 and 14 μM oxygen per min, respectively) and may be due to an electrode artifact. […] Where presented, initial rates were calculated by determining the slope of the linear portion of time dependent plots of oxygen generation, usually comprising the first five seconds of the reaction. Unless otherwise indicated, these were corrected by subtracting the rate obtained with H2O2 alone. Where presented, endpoint oxygen generated was calculated from time-dependent plots, such as those shown in FIG. 14, as the difference between the baseline oxygen concentration immediately prior to substrate addition and the maximal oxygen concentration achieved during the course of the reaction. All reactions subjected to these calculations were run for a sufficient time to ensure that oxygen generation had ceased.
(§1) Catalase and peroxidase activities were assayed as described in Example 2. Catalase assays contained 10 μM salen-manganese complex and 10 mM hydrogen peroxide. Peroxidase assays contained 10 μM salen-manganese complex and 0.2 mM hydrogen peroxide. Glucose-glucose oxidase toxicity assays were performed using human dermal fibroblasts as described in Example 2.

[3] = Peroxidase activity, H2O2-dependent oxidation of ABTS (Example 2); assay type: biochemical; conditions: relative to C7 (C7 = 100)
Experimental: Peroxidase activity was assayed by monitoring the hydrogen peroxide-dependent oxidation of 2,2′-azino-bis(3-ethylbenzthiazoline-6) sulfonic acid (ABTS) spectrophotometrically. Standard assay mixtures consisted of 50 mM sodium phosphate, pH 8.1, 0.9% sodium chloride, 0.5 mM ABTS, and H2O2 and salen manganese complex as indicated. Where indicated, 50 mM sodium phosphate buffers of pH 6.0 or pH 7.1 were substituted. Assays were conducted at 27±0.2° C. ABTS oxidation was monitored at 740 or 500 nm to eliminate interference by the salen manganese complexes, many of which absorb in the vicinity of the λmax of oxidized ABTS, and to avoid absorbance values that exceeded the linear range of the spectrophotometer. The amount of oxidized ABTS was estimated using an Δε740 of 20,300 M^−1cm^−1 or an Δε500 of 3400 M^−1cm^−1 calculated based upon the published molar extinction coefficient oat 405 nm (36,800).
as §1

[4] = test system: isolated iron-overloaded rat hearts; experiment: Isolated iron-overloaded rat hearts submitted to ischemia and reperfusion (function and electron microscopy)
Experimental: Rats received an intramuscular injection of 0.25 ml of an iron-dextran solution (100 g iron hydroxide, 99 g dextran, water up to 1 l) every third day during a 5-week period to achieve a significant iron overload in cardiac tissue. At the end of this treatment, rats were anesthetized with sodium pentobarbital (40 mg/kg) and heparin (1,000 IU/kg) was administered via a femoral vein. Hearts were then removed and rapidly perfused through the aorta according to the technique described by Langendorff [Langendorff, O., Pflügers Arch. 61: 291, 1895] at a constant flow rate of 11 ml/minute. The perfusion fluid was a modified Krebs-Henseleit buffer containing (in mmol/l): NaCl 118, KCl 5.9, NaHCO3 25, MgCl2 1.2, NaH2PO4 0.6, CaCl2 2.4, Glucose […]. pH was maintained at 7.4±0.05 when the perfusion medium was saturated with O2—CO2 (95%-5%) at 37° C. The perfusion apparatus was fully thermostated such that the temperature of the perfusion medium was 37.0±0.5° C. when it reached the aorta. An ultra-thin balloon was inserted in the left ventricle immediately after the initiation of aortic perfusion and was inflated so as to obtain an end-diastolic pressure of 5 mm Hg. A 15 minute stabilization period was initiated immediately following balloon placement. At the end of this period, systolic and diastolic ventricular pressures and heart beat rate (HR) were recorded through a pressure transducer linked to the ventricular balloon. Left Ventricular Developed Pressure (LVDP) was calculated by the difference between systolic and diastolic pressure and the product HR×LVDP was taken as an index of oxygen consumption. Hearts were then subjected to a 15 minute total global normothermic ischemia, followed by 15 minutes of reperfusion with the perfusion medium used initially. During this 15 minute reperfusion, heart rate, and diastolic and systolic pressures were monitored. Early ventricular fibrillations were analyzed 1 min. after the start of the reperfusion.
Three experimental groups were studied.
After the 15 minute reperfusion, 3 hearts in each group were prepared for electron microscopy by perfusion with 2.5% glutaraldehyde. Ultra-thin slices (500-600 Å thickness) were examined.
Mitochondria were classified into Type A (normal), Type B (swollen, unbroken), and Type C (ruptured membranes). Sarcomeres were classified into Type A (normal) and Type B (contacted and/or necrosis). The results are expressed as percentages.

[5] = 1 minute after reperfusion, DMTU 10 mM, C7 50 μM
[6] = 15 minutes after reperfusion, DMTU 10 mM, C7 50 μM
[7] = Before ischemia, DMTU 10 mM, C7 50 μM
[8] = electron microscopy after 15 minute reperfusion

With `COc1cc(OC)c2c(c1)[O][Mn]([Cl])[O]c1cc(OC)cc(OC)c1C=NCCN=C2` [Compound C39] the SOD [1] was 27.

For `[Cl][Mn]1[O]c2ccccc2C=Nc2cccnc2N=Cc2ccccc2[O]1` [Compound C44], the Catalase endpt. [2] was 493, the Catalase rate [2] was 272 and the Peroxidase [3] was 48.

In the case of `COc1cccc2c1[O][Mn]([Cl])[O]c1c(cccc1OC)C=Nc1ncccc1N=C2` [Compound C46], the Catalase endpt. [2] is reported as 830, the Catalase rate [2] is reported as 465 and the Peroxidase [3] is reported as 20.

Molecule `CC(=O)[O][Mn]1[O]c2ccccc2C=Nc2ccccc2N=Cc2ccccc2[O]1` [Compound C47] has a Catalase endpt. [2] of 398, a Catalase rate [2] of 343 and a Peroxidase [3] of 101.

In the case of `COc1cccc2c1[O][Mn]([O]C(C)=O)[O]c1c(cccc1OC)C=NC1CCCCC1N=C2` (centres unmarked) [Compound C50], the Catalase endpt. [2] is reported as 287, the Catalase rate [2] is reported as 174 and the Peroxidase [3] is reported as 170.

Work on `CC(=O)[O][Mn]1[O]c2ccccc2C=NCC(C)(C)CN=Cc2ccccc2[O]1` [Compound C52] yielded a Catalase endpt. [2] of 33, a Catalase rate [2] of 73 and a Peroxidase [3] of 0.

With `[F][Mn]1[O]c2ccccc2C=NCCN=Cc2ccccc2[O]1` [Compound C54] the SOD [1] was 75 and the Peroxidase [3] was 116.

`[Br][Mn]1[O]c2ccccc2C=NCCN=Cc2ccccc2[O]1` [Compound C55] gave an SOD [1] of 178 and a Peroxidase [3] of 101.

`[Cl][Fe]1[O]c2ccccc2C=NCCN=Cc2ccccc2[O]1` [Compound C57] showed an SOD [1] of 33.

`C1=NCCN=Cc2ccccc2[O][Ni][O]c2ccccc21` [Compound C59] showed a Peroxidase [3] of 0.

Work on `COc1cc(Br)c2c(c1)C=NCCN=Cc1cc(OC)cc(Br)c1[O][Mn]([O]C(C)=O)[O]2` [Compound C69] yielded a Peroxidase [3] of 167.

Molecule `CC(=O)[O][Mn]1[O]c2c(O)cccc2C=NCCN=Cc2cccc(O)c2[O]1` [Compound C71] has an SOD [1] of 75.

Work on `Oc1ccc2c(c1)[O][Mn]([Cl])[O]c1cc(O)ccc1C=NCCN=C2` [Compound C72] yielded an SOD [1] of 58.

With `CC(=O)[O][Mn]1[O]c2cc(O)ccc2C=NCCN=Cc2ccc(O)cc2[O]1` [Compound C73] the SOD [1] was 61.

Work on `CC(=O)[O][Mn]1[O]c2ccc(O)cc2C=NCCN=Cc2cc(O)ccc2[O]1` [Compound C74] yielded an SOD [1] of 65.

`CC(=O)[O][Mn]1[O]c2c(F)cccc2C=Nc2cccnc2N=Cc2cccc(F)c2[O]1` [Compound C75] gave a Peroxidase [3] of 0.

In the case of `COc1cc(Br)c2c(c1)C=Nc1ccccc1N=Cc1cc(OC)cc(Br)c1[O][Mn]([O]C(C)=O)[O]2` [Compound C76], the Catalase endpt. [2] is reported as 159, the Catalase rate [2] is reported as 427 and the Peroxidase [3] is reported as 23.

Molecule `CC(=O)[O][Mn]1[O]c2ccc(Cl)cc2C=Nc2cccnc2N=Cc2cc(Cl)ccc2[O]1` [Compound C77] has a Peroxidase [3] of 0.

Work on `CC(=O)[O][Mn]1[O]c2ccc3ccccc3c2C=Nc2ccccc2N=Cc2c(ccc3ccccc23)[O]1` [Compound C79] yielded a Catalase endpt. [2] of 22, a Catalase rate [2] of 42 and a Peroxidase [3] of 0.

In the case of `COc1cccc2c1[O][Mn]([O]C(C)=O)[O]c1c(cccc1OC)C=NCCCN=C2` [Compound C80], the Catalase endpt. [2] is reported as 24, the Catalase rate [2] is reported as 34 and the Peroxidase [3] is reported as 0.

`COc1cccc2c1[O][Mn]([Cl])[O]c1c(cccc1OC)C=Nc1ccccc1N=C2` [Compound C81] gave a Catalase endpt. [2] of 870, a Catalase rate [2] of 493 and a Peroxidase [3] of 83.

For `CC(=O)[O][Mn]1[O]c2c3cccc2OCCOCCOCCOc2cccc(c2[O]1)C=Nc1ccccc1N=C3` [Compound C82], the Catalase endpt. [2] was 756, the Catalase rate [2] was 345 and the Peroxidase [3] was 59.

`CC(=O)[O][Mn]1[O]c2ccccc2CNCCNCc2ccccc2[O]1` [Compound C83] gave a Catalase endpt. [2] of 52, a Catalase rate [2] of 42 and a Peroxidase [3] of 74.

`[Cl][Mn]1[O]c2ccccc2CNCCNCc2ccccc2[O]1` [Compound C84] gave a Catalase endpt. [2] of 51, a Catalase rate [2] of 31 and a Peroxidase [3] of 77.

Work on `COc1ccc2c(c1)C(C)=NCCN=C(C)c1cc(OC)ccc1[O][Mn]([O]C(C)=O)[O]2` [Compound C87] yielded a Peroxidase [3] of 20.

`COc1ccc2c(c1)[O][Mn]([O]C(C)=O)[O]c1cc(OC)ccc1C(C)=NCCN=C2C` [Compound C88] gave a Peroxidase [3] of 0.

In the case of `COc1ccc2c(c1)[O][Mn]([O]C(C)=O)[O]c1cc(OC)ccc1C(c1ccccc1)=NCCN=C2c1ccccc1` [Compound C89], the Peroxidase [3] is reported as 0.

For `CNC(=S)NC` [DMTU, dimethylthiourea], the DP [4, 5] was 37.2 ± 10.0 mm Hg, the HR [4, 5] was 91 ± 10 beats/min and the “HR × LVDP” value [4, 5] was 3.5 ± 1.2 ×10.3. For the same molecule, the SP [4, 5] was 62 ± 9 mm Hg, the “VF, number of hearts exhibiting episodes of ventricular fibrillation” value [4, 5] was 3/8 and the DP [4, 6] was 27.8 ± 9.4 mm Hg. The HR [4, 6] was 226 ± 18 beats/min, the “HR × LVDP” value [4, 6] was 9.4 ± 2.0 ×10.3 and the SP [4, 6] was 58 ± 6 mm Hg. For the same molecule, the DP [4, 7] was 4.7 ± 0.3 mm Hg, the HR [4, 7] was 280 ± 10 beats/min and the “HR × LVDP” value [4, 7] was 24.1 ± 0.6 ×10.3. For the same molecule, the SP [4, 7] was 97 ± 4 mm Hg, the “Mitochondria Type A (normal)” value [4, 8] was 14.3* % and the “Mitochondria Type B (swollen, unbroken)” value [4, 8] was 19.5%. For the same molecule, the “Mitochondria Type C (ruptured membranes)” value [4, 8] was 66.2%, the “Sarcomeres Type A (normal)” value [4, 8] was 13.7+ % and the “Sarcomeres Type B (contacted and/or necrosis)” value [4, 8] was 86.3+ %.
